Source: patent US4011307A, “Production of ^203 Pb-tris-hydroxymethyl amino methane” (The United States of America as represented by the United …, priority 1976, dated 1977)

How the values were obtained:
[1] = system: tissues of hamsters with eye melanoma; experiment: Distribution of carrier-free lead-203 tris in tissue at various times; format: in vivo, hamster
Experimental: The ^203 Pb-tris as described herein was injected in a relatively large number of mice and hamsters which were tumor bearing animals. […]

[2] = Toxicity effects from the presence of lead in the blood stream; format: in vivo; conditions: near carrier-free lead-203 complexed with tris
[3] = system: melanomas, tumors; experiment: Localization / tissue distribution study in tumor bearing animals; format: in vivo, mice and hamsters
Experimental: The ^203 Pb-tris as described herein was injected in a relatively large number of mice and hamsters which were tumor bearing animals.

[4] = system: tumors; conditions: previous attempts reported; cited from earlier work

Lead-203 tris-hydroxymethyl aminomethane
Distribution, Blood ([1]; Time 1, 60 min): 3.870 Percent Uptake per Gram of Tis
Distribution, Blood ([1]; Time 3, 180 min): 3.635 Percent Uptake per Gram of Tis
Distribution, Blood ([1]; Time 6, 360 min): 5.847 Percent Uptake per Gram of Tis
Distribution, Blood ([1]; Time 24, 1440 min): 3.007 Percent Uptake per Gram of Tis
Distribution, Blood ([1]; Time 72, 4320 min): 3.792 Percent Uptake per Gram of Tis
Distribution, Blood ([1]; Time 144, 8640 min): 0.852 Percent Uptake per Gram of Tis
Distribution, Bone ([1]; Time 1, 60 min): 3.977 Percent Uptake per Gram of Tis
Distribution, Bone ([1]; Time 3, 180 min): 3.991 Percent Uptake per Gram of Tis
Distribution, Bone ([1]; Time 6, 360 min): 5.320 Percent Uptake per Gram of Tis
Distribution, Bone ([1]; Time 24, 1440 min): 5.342 Percent Uptake per Gram of Tis
Distribution, Bone ([1]; Time 72, 4320 min): 9.761 Percent Uptake per Gram of Tis
Distribution, Bone ([1]; Time 144, 8640 min): 5.757 Percent Uptake per Gram of Tis
Distribution, Choroid ([1]; Time 1, 60 min): 1.109 Percent Uptake per Gram of Tis
Distribution, Choroid ([1]; Time 3, 180 min): 0.950 Percent Uptake per Gram of Tis
Distribution, Choroid ([1]; Time 6, 360 min): 0.337 Percent Uptake per Gram of Tis
Distribution, Choroid ([1]; Time 24, 1440 min): 0.361 Percent Uptake per Gram of Tis
Distribution, Choroid ([1]; Time 72, * 4 animals, 4320 min): 0.127 Percent Uptake per Gram of Tis
Distribution, Choroid ([1]; Time 144, 8640 min): 0.131 Percent Uptake per Gram of Tis
Distribution, Cornea ([1]; Time 1): 0.834 Percent Uptake per Gram of Tis
Distribution, Cornea ([1]; Time 3): 0.173 Percent Uptake per Gram of Tis
Distribution, Cornea ([1]; Time 6): 0.891 Percent Uptake per Gram of Tis
Distribution, Cornea ([1]; Time 24): 0.200 Percent Uptake per Gram of Tis
Distribution, Cornea ([1]; Time 72, * 4 animals): 0.084 Percent Uptake per Gram of Tis
Distribution, Cornea ([1]; Time 144): 0.062 Percent Uptake per Gram of Tis
Distribution, Gonads ([1]; Time 1, 60 min): 2.076 Percent Uptake per Gram of Tis
Distribution, Gonads ([1]; Time 3, 180 min): 0.238 Percent Uptake per Gram of Tis
Distribution, Gonads ([1]; Time 6, 360 min): 0.663 Percent Uptake per Gram of Tis
Distribution, Gonads ([1]; Time 24, 1440 min): 0.164 Percent Uptake per Gram of Tis
Distribution, Gonads ([1]; Time 144, 8640 min): 0.079 Percent Uptake per Gram of Tis
Distribution, Intestines ([1]; Time 1, 60 min): 0.841 Percent Uptake per Gram of Tis
Distribution, Intestines ([1]; Time 3, 180 min): 0.653 Percent Uptake per Gram of Tis
Distribution, Intestines ([1]; Time 6, 360 min): 1.593 Percent Uptake per Gram of Tis
Distribution, Intestines ([1]; Time 24, 1440 min): 1.664 Percent Uptake per Gram of Tis
Distribution, Intestines ([1]; Time 72, * 4 animals, 4320 min): 2.064 Percent Uptake per Gram of Tis
Distribution, Intestines ([1]; Time 144, 8640 min): 0.217 Percent Uptake per Gram of Tis
Distribution, Kidney ([1]; Time 1, 60 min): 25.32 Percent Uptake per Gram of Tis
Distribution, Kidney ([1]; Time 3, 180 min): 18.156 Percent Uptake per Gram of Tis
Distribution, Kidney ([1]; Time 6, 360 min): 17.703 Percent Uptake per Gram of Tis
Distribution, Kidney ([1]; Time 24, 1440 min): 10.508 Percent Uptake per Gram of Tis
Distribution, Kidney ([1]; Time 72, 4320 min): 17.443 Percent Uptake per Gram of Tis
Distribution, Kidney ([1]; Time 144, 8640 min): 3.904 Percent Uptake per Gram of Tis
Distribution, Lens ([1]; Time 1, 60 min): 0.017 Percent Uptake per Gram of Tis
Distribution, Lens ([1]; Time 3, 180 min): 0.023 Percent Uptake per Gram of Tis
Distribution, Lens ([1]; Time 6, 360 min): 0.021 Percent Uptake per Gram of Tis
Distribution, Lens ([1]; Time 24, 1440 min): 0.005 Percent Uptake per Gram of Tis
Distribution, Lens ([1]; Time 72, * 4 animals, 4320 min): 0.006 Percent Uptake per Gram of Tis
Distribution, Lens ([1]; Time 144, 8640 min): 0.005 Percent Uptake per Gram of Tis
Distribution, Liver ([1]; Time 1, 60 min): 5.463 Percent Uptake per Gram of Tis
Distribution, Liver ([1]; Time 3, 180 min): 4.273 Percent Uptake per Gram of Tis
Distribution, Liver ([1]; Time 6, 360 min): 7.188 Percent Uptake per Gram of Tis
Distribution, Liver ([1]; Time 24, 1440 min): 3.729 Percent Uptake per Gram of Tis
Distribution, Liver ([1]; Time 72, 4320 min): 4.841 Percent Uptake per Gram of Tis
Distribution, Liver ([1]; Time 144, 8640 min): 2.331 Percent Uptake per Gram of Tis
Distribution, Melanoma-Eye ([1]; Time 1, 60 min): 1.048 Percent Uptake per Gram of Tis
Distribution, Melanoma-Eye ([1]; Time 3, 180 min): 0.976 Percent Uptake per Gram of Tis
Distribution, Melanoma-Eye ([1]; Time 6, 360 min): 1.609 Percent Uptake per Gram of Tis
Distribution, Melanoma-Eye ([1]; Time 24, 1440 min): 1.314 Percent Uptake per Gram of Tis
Distribution, Melanoma-Eye ([1]; Time 72, * 4 animals, 4320 min): 0.724 Percent Uptake per Gram of Tis
Distribution, Melanoma-Eye ([1]; Time 144, 8640 min): 0.821 Percent Uptake per Gram of Tis
Distribution, Melanoma-Skin ([1]; Time 1, 60 min): 1.095 Percent Uptake per Gram of Tis
Distribution, Melanoma-Skin ([1]; Time 3, 180 min): 1.051 Percent Uptake per Gram of Tis
Distribution, Melanoma-Skin ([1]; Time 6, 360 min): 1.209 Percent Uptake per Gram of Tis
Distribution, Melanoma-Skin ([1]; Time 24, 1440 min): 0.845 Percent Uptake per Gram of Tis
Distribution, Melanoma-Skin ([1]; Time 72, 4320 min): 1.010 Percent Uptake per Gram of Tis
Distribution, Melanoma-Skin ([1]; Time 144, 8640 min): 0.749 Percent Uptake per Gram of Tis
Distribution, Muscle ([1]; Time 1): 0.159 Percent Uptake per Gram of Tis
Distribution, Muscle ([1]; Time 3): 0.100 Percent Uptake per Gram of Tis
Distribution, Muscle ([1]; Time 6): 0.090 Percent Uptake per Gram of Tis
Distribution, Muscle ([1]; Time 24): 0.026 Percent Uptake per Gram of Tis
Distribution, Muscle ([1]; Time 72): 0.041 Percent Uptake per Gram of Tis
Distribution, Muscle ([1]; Time 144, 8640 min): 0.027 Percent Uptake per Gram of Tis
Distribution, Normal-Eye ([1]; Time 1, 60 min): 0.200 Percent Uptake per Gram of Tis
Distribution, Normal-Eye ([1]; Time 3, 180 min): 0.086 Percent Uptake per Gram of Tis
Distribution, Normal-Eye ([1]; Time 6, 360 min): 0.111 Percent Uptake per Gram of Tis
Distribution, Normal-Eye ([1]; Time 24, 1440 min): 0.054 Percent Uptake per Gram of Tis
Distribution, Normal-Eye ([1]; Time 72, 4320 min): 0.084 Percent Uptake per Gram of Tis
Distribution, Normal-Eye ([1]; Time 144, 8640 min): 0.047 Percent Uptake per Gram of Tis
Distribution, Normal-Skin ([1]; Time 1, 60 min): 0.401 Percent Uptake per Gram of Tis
Distribution, Normal-Skin ([1]; Time 3, 180 min): 0.256 Percent Uptake per Gram of Tis
Distribution, Normal-Skin ([1]; Time 6, 360 min): 0.286 Percent Uptake per Gram of Tis
Distribution, Normal-Skin ([1]; Time 24, 1440 min): 0.090 Percent Uptake per Gram of Tis
Distribution, Normal-Skin ([1]; Time 72, 4320 min): 0.122 Percent Uptake per Gram of Tis
Distribution, Normal-Skin ([1]; Time 144, 8640 min): 0.071 Percent Uptake per Gram of Tis
Distribution, Retina ([1]; Time 1, 60 min): 0.169 Percent Uptake per Gram of Tis
Distribution, Retina ([1]; Time 3, 180 min): 0.074 Percent Uptake per Gram of Tis
Distribution, Retina ([1]; Time 6, 360 min): 0.251 Percent Uptake per Gram of Tis
Distribution, Retina ([1]; Time 24, 1440 min): 0.206 Percent Uptake per Gram of Tis
Distribution, Retina ([1]; Time 72, * 4 animals, 4320 min): 0.091 Percent Uptake per Gram of Tis
Distribution, Retina ([1]; Time 144, 8640 min): 0.127 Percent Uptake per Gram of Tis
Distribution, Vitreous ([1]; Time 1, 60 min): 0.031 Percent Uptake per Gram of Tis
Distribution, Vitreous ([1]; Time 3, 180 min): 0.028 Percent Uptake per Gram of Tis
Distribution, Vitreous ([1]; Time 6, 360 min): 0.036 Percent Uptake per Gram of Tis
Distribution, Vitreous ([1]; Time 24, 1440 min): 0.031 Percent Uptake per Gram of Tis
Distribution, Vitreous ([1]; Time 72, * 4 animals, 4320 min): 0.014 Percent Uptake per Gram of Tis
Distribution, Vitreous ([1]; Time 144, 8640 min): 0.018 Percent Uptake per Gram of Tis
Toxicity effects from the presence of lead in the blood stream [2]: avoided or minimized
Ability to localize in melanomas ([3]; extensive studies): has the ability to localize in melanomas, especially those of the eye
Uptake of ^203 Pb by the tumors ([3]; tumor bearing mice and hamsters, injected, tissue distribution): selective uptake by the tumors

lead
Outcome of previous attempts to use lead as agent for the treatment of tumors [4]: apparently failed to produce useful results due to the toxicity of lead in the bloodstream
